Experimental data reported in US20170314074A1, “LPA-ASSOCIATED PROTEIN AND RNA EXPRESSION” (Intermune, Inc., priority 2014, published 2017).

System: normal human lung fibroblasts
Experiment: mRNA expression after LPA induction, Affymetrix Human Gene ST arrays, fibroblasts (Table 4A)
Type: cell-based
Details: LPA-induced fibroblasts; 1 μM BMS-986020; average of 3 experiments
Procedure: Changes in gene expression after 3 hours of LPA induction were profiled on Affymetrix Human Gene ST 2.0 microarrays; differentially expressed genes identified by ANOVA with FDR <0.05 and fold-change >1.2. Process networks associated with differentially expressed genes were defined using MetaCore. Changes in secreted protein expression after 24 hours of LPA induction were profiled on an aptamer-based proteomic platform (1129 proteins); differentially expressed proteins identified by t-test.
Total RNA was isolated from normal human lung fibroblasts, human bronchial epithelial cells, and human pulmonary alveolar epithelial cells treated for […] with LPA and/or LPAR1 inhibitor. Each treatment condition was assayed in triplicate. Samples were profiled on Affymetrix Human Gene ST Arrays 1.0 and/or 2.0 after preparation using the Ambion WT Expression Kit according to manufacturers' instructions.
Data normalization and all subsequent analyses were performed in Partek Genomics Suite (Partek, St. Louis, Mo.). Data were normalized using the Robust Multi-array Average (RMA) algorithm. Differentially expressed genes were identified by ANOVA with correction for multiple comparisons with p-value with FDR<0.05. A fold-change cut-off was not strictly applied, although the majority of the differentially expressed genes identified have fold-changes greater than 1.2. Genes were included if they were statistically significant for (1) LPA-induction and (2) response to treatment with an LPAR1 inhibitor.
In Tables 1-5 The differentially expressed secreted proteins set forth in Tables 1, 2, and 5 and the differentially expressed mRNAs set forth in Table 3 and 4 were identified by visual inspection of individual dot-plots.
For the gene and protein expression analysis primary fibroblasts (NHLF product #CC-2512 from Lonza group LTD) and primary epithelial cells (NHBE Product #CC-2540 from Lonza; HPAEpiC Product #3200 from Sciencell (USA, California)) were cultured as recommended by the manufacturer, except they were cultured on collagen coated plates. As part of the induction protocol cells were starved overnight in low (0.2 or 0.1% serum) or no serum (0%), prior to stimulation with LPA.

## Cc1noc(-c2ccc(-c3ccc(C4(C(=O)O)CC4)cc3)cc2)c1NC(=O)O[C@H](C)c1ccccc1 [BMS-986020]
  Effect of 1 μM BMS-986020 relative to induced cells (fold-change), BIRC3 mRNA: −3.33 fold-change
  Effect of 1 μM BMS-986020 relative to induced cells (fold-change), CHIC2 mRNA: −2.40 fold-change
  Effect of 1 μM BMS-986020 relative to induced cells (fold-change), CNST mRNA: −2.32 fold-change
  Effect of 1 μM BMS-986020 relative to induced cells (fold-change), CTGF mRNA: −4.62 fold-change
  Effect of 1 μM BMS-986020 relative to induced cells (fold-change), CYR61 mRNA: −7.53 fold-change
  Effect of 1 μM BMS-986020 relative to induced cells (fold-change), DKK1 mRNA: −6.16 fold-change
  Effect of 1 μM BMS-986020 relative to induced cells (fold-change), DUSP1 mRNA: −2.56 fold-change
  Effect of 1 μM BMS-986020 relative to induced cells (fold-change), EFNB2 mRNA: −2.63 fold-change
  Effect of 1 μM BMS-986020 relative to induced cells (fold-change), GPR37 mRNA: −3.13 fold-change
  Effect of 1 μM BMS-986020 relative to induced cells (fold-change), HAS2 mRNA: −2.89 fold-change
  Effect of 1 μM BMS-986020 relative to induced cells (fold-change), HBEGF mRNA: −5.41 fold-change
  Effect of 1 μM BMS-986020 relative to induced cells (fold-change), IER3 mRNA: −3.28 fold-change
  Effect of 1 μM BMS-986020 relative to induced cells (fold-change), IL6 mRNA: −4.08 fold-change
  Effect of 1 μM BMS-986020 relative to induced cells (fold-change), KPRP mRNA: −3.81 fold-change
  Effect of 1 μM BMS-986020 relative to induced cells (fold-change), KRTAP1-5 mRNA: −6.89 fold-change
  Effect of 1 μM BMS-986020 relative to induced cells (fold-change), KRTAP4-12 mRNA: −3.90 fold-change
  Effect of 1 μM BMS-986020 relative to induced cells (fold-change), LIF mRNA: −5.07 fold-change
  Effect of 1 μM BMS-986020 relative to induced cells (fold-change), MCP-1/CCL2 mRNA: −5.99 fold-change
  Effect of 1 μM BMS-986020 relative to induced cells (fold-change), MIR218-1: −2.82 fold-change
  Effect of 1 μM BMS-986020 relative to induced cells (fold-change), PAI-1 mRNA: −2.43 fold-change
  Effect of 1 μM BMS-986020 relative to induced cells (fold-change), PDCD1LG2 mRNA: −2.51 fold-change
  Effect of 1 μM BMS-986020 relative to induced cells (fold-change), PTX3 mRNA: −2.49 fold-change
  Effect of 1 μM BMS-986020 relative to induced cells (fold-change), SERPINB2 mRNA: −2.64 fold-change
  Effect of 1 μM BMS-986020 relative to induced cells (fold-change), TNFAIP3 mRNA: −3.68 fold-change
  Effect of 1 μM BMS-986020 relative to induced cells (fold-change), TXNIP mRNA: 4.41 fold-change
  Effect of 1 μM BMS-986020 relative to induced cells (fold-change), UGCG mRNA: −2.52 fold-change
  Effect of 1 μM BMS-986020 relative to induced cells (fold-change), VGLL3 mRNA: −2.97 fold-change
